Where two headings read alike, the source gives them in different places.
Key:
[1] = system: S. epidermidis ATCC 12228; test: Cell lysis (bacteriolysis, OD600); format: cell-based, Staphylococcus epidermidis; settings: 1 × MBC
[2] = system: Staphylococcus aureus ATCC 29213; test: Fluorescence microscopy, Hoechst 33258 / propidium iodide viability; format: cell-based; settings: S. aureus ATCC 29213; MIC concentration, 24 h
Experimental: (§1) Staphylococcus aureus ATCC 29213 and Staphylococcus epidermidis ATCC 12228 strains were treated with tested compounds 2a–2d and 3a–3d at a concentration 1 × MIC for 24h, while untreated cells were used as a growth control. After incubation, the cells were harvested and a suspension of 1 × 10^5 cells/mL in PBS was prepared. Following this, 1 µl of the fluorescent dyes Hoechst 33258 and propidium iodide (15 µg/mL each) (Sigma, St. Louis, MO, USA) were added. The obtained mixture was incubated in the dark at room temperature for 15–20 min. After incubation, the cell suspensions, placed on glass slides, were analyzed under an Olympus IX 70 fluorescence microscope (Shinjuku, Tokyo, Japan), using a 360–370 nm UV filter. Photos were taken at 10 × 20 magnification.

[3] = system: Staphylococcus epidermidis ATCC 12228; test: as above; format: cell-based; settings: S. epidermidis ATCC 12228; MIC concentration, 24 h
Experimental: as §1

[4] = system: S. epidermidis ATCC 12228; test: Time-kill test; format: cell-based, Staphylococcus epidermidis; settings: 1 × MIC
Experimental: (§2) The time-kill experiments were performed as described previously. Briefly, inocula were prepared in TSB medium (TSB; […] BTL Sp. z o.o., Łódź, Poland). All samples were incubated at 35 °C and 80 rpm for varied time intervals (2, 4, 6, 12, 18, 24, 48h). The percentage of dead cells was calculated according to the growth control by determining the number of living cells (CFU/mL) of each tube using the agar plate count method. Samples were immediately serially diluted ten-fold in 0.01 M phosphate buffered saline (PBS, Bimed Lublin S.A., Lublin, Poland) at pH 7.0 and 10 μL aliquots were spot-inoculated in duplicate onto MHA plates. Agar plates were incubated at 37 °C overnight before determining the viable count. Two independent experiments were carried out.

S. aureus ATCC 29213 [5] = test: Synergy with oxacillin and vancomycin, partial checkerboard broth microdilution; format: cell-based, Staphylococcus aureus; settings: S. aureus ATCC 29213; for FIC (Oxa) / FIC (Van): MIC antibiotic in combination/MIC antibiotic alone; for MIC Oxa in Combination: oxacillin with the complex at ½ MIC (NH4PF6 250 µg/mL); for MIC Van in Combination: vancomycin with the complex at ½ MIC (NH4PF6 250 µg/mL)
[6] = system: S. epidermidis ATCC 12228; test: as above; format: cell-based, Staphylococcus epidermidis; settings: S. epidermidis ATCC 12228; for FIC (Oxa) / FIC (Van): MIC antibiotic in combination/MIC antibiotic alone; for MIC Oxa in Combination: oxacillin with the complex at ½ MIC (NH4PF6 250 µg/mL); for MIC Van in Combination: vancomycin with the complex at ½ MIC (NH4PF6 250 µg/mL)
S. aureus ATCC 29213 [7] = test: Time-kill test; format: cell-based, Staphylococcus aureus; settings: 1 × MIC
Experimental: as §2

[8] = system: Supercoiled plasmid pUC57 DNA; design: method as in PMID 35540189; settings: studied previously; cited from earlier work
[9] = system: WM-115 melanoma cell line; settings: cited from earlier work
[10] = read-out: IC50 (cytotoxicity), WM-115 melanoma cell line

SMILES | Cell lysis, change of OD600 [1] | Change in bacterial viability (Hoechst 33258 / PI fluorescence) [2] | Change in bacterial viability (Hoechst 33258 / PI fluorescence) [3] | Time-kill: bacteriostatic or bactericidal [4] | Correlation with Oxa and Van (synergy), in words (S. aureus ATCC 29213 [5]) | FIC (Oxa) (S. aureus ATCC 29213 [5]) | FIC (Van) (S. aureus ATCC 29213 [5]) | MIC Oxa in Combination (S. aureus ATCC 29213 [5]) | MIC Van in Combination (S. aureus ATCC 29213 [5]) | Correlation with Oxa and Van (synergy), in words [6] | FIC (Oxa) [6] | FIC (Van) [6] | MIC Oxa in Combination [6] | MIC Van in Combination [6] | Time-kill: bacteriostatic or bactericidal (S. aureus ATCC 29213 [7]) | Nicking of DNA Form I into Form II and III [8] | IC50 [9, 10] | IC50 [9]
CCc1cc(CC)n(C(N)=S)n1.Cc1ccc(C(C)C)cc1.[Cl-].[Cl][Ru+] [Compound 2b] | not found to change OD600 values | Less changes in cell survival | Less changes in cell survival | bacteriostatic | synergistic effects | 0.5 | 0.5 | 0.125 µg/mL | 0.25 µg/mL | synergistic effect in all tested configurations | 0.06 | 0.03 | 0.015 µg/mL | 0.015 µg/mL | bacteriostatic | nick the DNA Form I into Form II and III | – | –
Cc1ccc(C(C)C)cc1.NC(=S)n1nc(-c2ccccc2)cc1O.[Cl-].[Cl][Ru+] [Compound 2c] | quite moderate decrease in OD600 | greatest changes in bacterial viability | greatest changes in bacterial viability | bactericidal | synergistic effects | 0.5 | 0.5 | 0.125 µg/mL | 0.25 µg/mL | – | 0.25 | 1 | 0.06 µg/mL | 0.5 µg/mL | bacteriostatic | – | 26.7 µM | –
Cc1cc(O)n(C(N)=S)n1.Cc1ccc(C(C)C)cc1.[Cl-].[Cl][Ru+] [Compound 2d] | – | no significant changes in the viability | no significant changes in the viability | – | – | 0.5 | 1 | 0.125 µg/mL | 0.50 µg/mL | – | 0.5 | 1 | 0.125 µg/mL | 0.5 µg/mL | – | nick the DNA Form I into Form II and III | 7.9 µM | –
N.N.[Cl][Pt][Cl] [cisplatin, reference compound] | – | – | – | – | – | – | – | – | – | – | – | – | – | – | – | – | – | 18.2 µM

— article PMC8781304, “Arene-Ruthenium(II) Complexes with Carbothiamidopyrazoles as a Potential Alternative for Antibiotic Resistance in Human” (Molecules, 2022)
